Results taken from patent publication US8815882B2, “Pyrazole aminopyrimidine derivatives as LRRK2 modulators” (Genentech, Inc., priority 2010, dated 2014).
Where two headings read alike, the source gives them in different places.

Target: T1, LRRK2 (Homo sapiens, UniProt Q5S007, G2019S)
T1 construct: purchased Invitrogen PV4882 (lot 567054A)
Assay: In Vitro LRRK2 Assay (LabChip 3000, fluorescently-labeled peptide substrate, ATP)
Type: biochemical
Method: This assay was used to determine a compound's potency in inhibiting activity of LRRK2 by determining, Kiapp, IC50, or percent inhibition values. In a polypropylene plate, LRRK2, fluorescently-labeled peptide substrate, ATP and test compound were incubated together. Using a LabChip 3000 (Caliper Life Sciences), after the reaction the substrate was separated by capillary electrophoresis into two populations: phosphorylated and unphosphorylated. The relative amounts of each were quantitated by fluorescence intensity. LRRK2 Ki was determined according to the equation: Y=V0*(1−(x+Ki*(1+S/Km)+Et)/(2*Et)−(((x+Ki*(1+S/Km)+Et)^2−(4*Et*x))^0.5)/(2*Et))). Ki values in Table 4 and elsewhere herein are shown in μM.
Assay conditions and materials used were as follows:
Compound Plate Preparation:
For serial dilutions, 34.6 μl DMSO was added to columns 3-24.
Total and Blank Preparation:
In Complete Reaction Buffer, substrate was diluted to 4 μM. Equal volumes of Complete Reaction Buffer and 4 μM substrate were combined to obtain the blank. Equal volumes of Complete Reaction Buffer and 4 μM substrate were combined and to the combined solution was added 2× final LRRK2 concentration.
To a 50 μl polypropylene plate, 5 μl/well buffer/substrate was added by hand to Blank wells. A Biomek FX was used to start the kinase reaction (“PLK SAR 23 ATP”). The following were added to the appropriate wells:
5 μl/well compound/ATP in Assay Plate;
5 μl/well kinase/substrate in Assay Plate;
The plate was incubated for 2 hours in the dark. Biomek FX was used to stop the kinase reaction (“PLK Stop”), and 10 μl/well Stop solution was added to the Assay Plate. Results were read on the LabChip 3000.
The LabChip 3000 was run using the job “LRRK2 IC50” with the following job settings: […]

[1] = read-out: LRRK2 Ki (KI), Table 7
[2] = read-out: LRRK2 Ki (KI), Table 8

T1 sequence (Q5S007 whole entry G2019S): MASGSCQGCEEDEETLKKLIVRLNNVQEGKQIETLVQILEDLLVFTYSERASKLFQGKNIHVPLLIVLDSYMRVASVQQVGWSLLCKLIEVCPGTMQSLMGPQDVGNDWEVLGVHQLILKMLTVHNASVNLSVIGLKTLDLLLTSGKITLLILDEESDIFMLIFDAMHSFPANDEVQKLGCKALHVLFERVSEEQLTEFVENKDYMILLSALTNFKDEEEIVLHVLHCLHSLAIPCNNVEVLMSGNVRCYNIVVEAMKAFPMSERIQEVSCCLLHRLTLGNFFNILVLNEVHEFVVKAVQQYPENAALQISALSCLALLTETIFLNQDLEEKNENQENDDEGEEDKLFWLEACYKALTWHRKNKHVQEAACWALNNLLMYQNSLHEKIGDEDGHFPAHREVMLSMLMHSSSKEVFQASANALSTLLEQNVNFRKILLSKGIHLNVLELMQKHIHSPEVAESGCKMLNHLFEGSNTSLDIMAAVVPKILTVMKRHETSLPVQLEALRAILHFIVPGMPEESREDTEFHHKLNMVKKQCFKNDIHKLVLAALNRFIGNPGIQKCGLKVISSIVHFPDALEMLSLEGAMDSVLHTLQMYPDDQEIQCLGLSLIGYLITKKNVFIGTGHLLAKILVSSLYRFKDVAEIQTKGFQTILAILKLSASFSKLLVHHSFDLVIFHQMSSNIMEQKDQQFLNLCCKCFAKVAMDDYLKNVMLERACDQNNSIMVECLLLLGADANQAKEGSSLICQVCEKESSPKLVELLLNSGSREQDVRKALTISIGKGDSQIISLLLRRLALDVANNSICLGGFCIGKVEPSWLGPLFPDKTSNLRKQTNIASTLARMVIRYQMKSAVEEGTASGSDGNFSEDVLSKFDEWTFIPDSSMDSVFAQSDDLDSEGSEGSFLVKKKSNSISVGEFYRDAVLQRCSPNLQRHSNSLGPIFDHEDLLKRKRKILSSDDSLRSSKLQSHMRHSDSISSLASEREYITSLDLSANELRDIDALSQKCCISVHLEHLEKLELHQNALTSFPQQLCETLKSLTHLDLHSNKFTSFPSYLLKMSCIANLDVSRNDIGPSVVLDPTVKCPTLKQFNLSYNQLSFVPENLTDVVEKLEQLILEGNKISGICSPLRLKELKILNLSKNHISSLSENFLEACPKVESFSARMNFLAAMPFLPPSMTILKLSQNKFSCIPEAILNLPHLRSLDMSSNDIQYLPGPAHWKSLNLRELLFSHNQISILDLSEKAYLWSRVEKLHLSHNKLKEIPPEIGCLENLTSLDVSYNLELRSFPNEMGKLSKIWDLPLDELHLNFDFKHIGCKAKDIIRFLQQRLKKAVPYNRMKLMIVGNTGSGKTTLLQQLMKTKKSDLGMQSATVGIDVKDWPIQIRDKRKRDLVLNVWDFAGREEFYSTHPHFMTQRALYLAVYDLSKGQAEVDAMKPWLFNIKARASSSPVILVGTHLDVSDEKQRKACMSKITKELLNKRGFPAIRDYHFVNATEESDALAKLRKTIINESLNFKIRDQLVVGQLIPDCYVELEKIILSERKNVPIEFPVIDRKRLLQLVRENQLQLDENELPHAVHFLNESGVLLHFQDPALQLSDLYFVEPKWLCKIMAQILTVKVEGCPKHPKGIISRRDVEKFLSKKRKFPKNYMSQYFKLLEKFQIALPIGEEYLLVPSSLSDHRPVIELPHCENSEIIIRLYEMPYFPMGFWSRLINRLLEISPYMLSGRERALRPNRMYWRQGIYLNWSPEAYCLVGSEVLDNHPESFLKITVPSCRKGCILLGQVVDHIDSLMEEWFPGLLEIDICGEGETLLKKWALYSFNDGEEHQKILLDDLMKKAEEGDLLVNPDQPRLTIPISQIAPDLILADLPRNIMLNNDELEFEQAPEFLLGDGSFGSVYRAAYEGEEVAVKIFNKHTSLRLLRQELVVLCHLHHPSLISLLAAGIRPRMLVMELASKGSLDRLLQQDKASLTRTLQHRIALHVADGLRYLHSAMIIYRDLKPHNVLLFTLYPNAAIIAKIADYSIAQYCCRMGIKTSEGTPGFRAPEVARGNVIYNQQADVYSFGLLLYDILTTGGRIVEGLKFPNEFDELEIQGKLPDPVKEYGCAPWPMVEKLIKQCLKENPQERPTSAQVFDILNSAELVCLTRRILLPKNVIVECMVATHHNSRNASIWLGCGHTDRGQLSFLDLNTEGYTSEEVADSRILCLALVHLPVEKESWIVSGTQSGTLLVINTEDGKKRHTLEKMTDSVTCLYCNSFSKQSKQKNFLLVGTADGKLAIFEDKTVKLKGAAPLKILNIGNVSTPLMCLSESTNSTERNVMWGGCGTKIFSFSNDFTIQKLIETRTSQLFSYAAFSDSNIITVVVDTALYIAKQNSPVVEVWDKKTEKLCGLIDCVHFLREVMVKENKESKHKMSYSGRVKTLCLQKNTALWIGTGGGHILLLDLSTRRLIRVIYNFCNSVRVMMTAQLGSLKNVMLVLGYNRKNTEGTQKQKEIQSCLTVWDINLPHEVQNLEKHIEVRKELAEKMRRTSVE

SMILES	Ki [1] [nM]	Ki [2] [nM]	also measured
COc1nc(Nc2cnn(C(C)(C)C#N)c2C)ncc1Cl [Example 72, 2-(4-(5-chloro-4-methoxy-pyrimidin-2-ylamino)-5-methyl-1H-pyrazol-1-yl)-2-methylpropane-nitrile]	16		
COc1nc(Nc2cn(C(C)(C)C#N)nc2C)ncc1Cl [Example 73, 2-(4-(5-chloro-4-methoxy-pyrimidin-2-ylamino)-3-methyl-1H-pyrazol-1-yl)-2-methylpropane-nitrile]	14		
COc1nc(Nc2cn(-c3ccc(S(C)(=O)=O)cc3)nc2C)ncc1Cl [Example 75, (5-Chloro-4-methoxy-pyrimidin-2-yl)-[1-(4-methanesulfonyl-phenyl)-3-methyl-1H-pyrazol-4-yl]-amine]	2.2		
COc1nc(Nc2cn(-c3ccccc3)nc2C)ncc1Cl [Example 76, (5-Chloro-4-methoxy-pyrimidin-2-yl)-(3-methyl-1-phenyl-1H-pyrazol-4-yl)-amine]	2.3		
COc1nc(Nc2cn(-c3ccccc3)nc2C)ncc1C(F)(F)F [Example 77, (4-Methoxy-5-trifluoromethyl-pyrimidin-2-yl)-(3-methyl-1-phenyl-1H-pyrazol-4-yl)-amine]	1.6		
COc1nc(Nc2cnn(-c3ccccc3)c2C)ncc1C(F)(F)F [Example 78, (4-Methoxy-5-trifluoromethyl-pyrimidin-2-yl)-(5-methyl-1-phenyl-1H-pyrazol-4-yl)-amine]	38.1		
COc1nc(Nc2cnn(C3CCOCC3)c2C)ncc1Cl [Example 80, (5-Chloro-4-methoxy-pyrimidin-2-yl)-[5-methyl-1-(tetrahydro-pyran-4-yl)-1H-pyrazol-4-yl]-amine]	66.3		
COc1nc(Nc2cn(-c3ccc(C(=O)N(C)C)cc3)nc2C)ncc1Cl [Example 81, 4-[4-(5-Chloro-4-methoxy-pyrimidin-2-ylamino)-3-methyl-pyrazol-1-yl]-N,N-dimethyl-benzamide]	2.2		
COc1nc(Nc2cnn(-c3ccc(C(=O)N(C)C)cc3)c2C)ncc1Cl [Example 82, 4-[4-(5-Chloro-4-methoxy-pyrimidin-2-ylamino)-5-methyl-pyrazol-1-yl]-N,N-dimethyl-benzamide]	630		
COc1nc(Nc2cnn(-c3ccc(C#N)cc3)c2C)ncc1Cl [Example 83, 4-[4-(5-Chloro-4-methoxy-pyrimidin-2-ylamino)-5-methyl-pyrazol-1-yl]-benzonitrile]	9		
CNc1nc(Nc2cnn(C)c2OC)ncc1C(F)(F)F [Example 84, N^2-(5-Methoxy-1-methyl-1H-pyrazol-4-yl)-N^4-methyl-5-trifluoromethyl-pyrimidine-2,4-diamine]	74.2		
COc1nc(Nc2cnn(C3CCOCC3)c2Cl)ncc1Cl [Example 85, (5-Chloro-4-methoxy-pyrimidin-2-yl)-[5-chloro-1-(tetrahydro-pyran-4-yl)-1H-pyrazol-4-yl]-amine]	6.6		
COc1nc(Nc2cn(C3CCN(CCF)CC3)nc2C)ncc1Cl [Example 86, (5-Chloro-4-methoxy-pyrimidin-2-yl)-{1-[1-(2-fluoro-ethyl)-piperidin-4-yl]-3-methyl-1H-pyrazol-4-yl}-amine]	183		
CCNc1nc(Nc2cnn(C3CCN(CC4OCCO4)CC3)c2C)ncc1C(F)(F)F [Example 87, N^2-[1-(1-[1,3]Dioxolan-2-ylmethyl-piperidin-4-yl)-5-methyl-1H-pyrazol-4-yl]-N^4-ethyl-5-trifluoromethyl-pyrimidine-2,4-diamine]	0.8		
CCNc1nc(Nc2cn(C3CCN(CC4OCCO4)CC3)nc2C)ncc1C(F)(F)F [Example 88, N^2-[1-(1-[1,3]Dioxolan-2-ylmethyl-piperidin-4-yl)-3-methyl-1H-pyrazol-4-yl]-N^4-ethyl-5-trifluoromethyl-pyrimidine-2,4-diamine]	9.4		
CNc1nc(Nc2cnn(C)c2C)ncc1Br [Example 89, 5-Bromo-N^2-(1,5-dimethyl-1H-pyrazol-4-yl)-N^4-methylpyrimidine-2,4-diamine]			Ki (read-out: LRRK2 Ki given in the example): 17 nM
CNc1nc(Nc2cnn(C3CCN(CC(F)(F)F)CC3)c2C)ncc1C(F)(F)F [Example 91, N4-methyl-N2-(5-methyl-1-(1-(2,2,2-trifluoroethyl)piperidin-4-yl)-1H-pyrazol-4-yl)-5-(trifluoromethyl) pyrimidine-2,4-diamine]		4.1	
CNc1nc(Nc2cn(C3CCN(CC(F)(F)F)CC3)nc2C)ncc1C(F)(F)F [Example 92, N4-methyl-N2-(3-methyl-1-(1-(2,2,2-trifluoroethyl)piperidin-4-yl)-1H-pyrazol-4-yl)-5-(trifluoromethyl) pyrimidine-2,4-diamine]		46	

The next lines start with results.

Ki [1] [nM]	Ki [2] [nM]	SMILES	also measured
	1.4	CNc1nc(Nc2cnn(C3CCN(CC(F)(F)F)CC3)c2C)ncc1Br [Example 93, 5-bromo-N4-methyl-N2-(5-methyl-1-(1-(2,2,2-trifluoroethyl)piperidin-4-yl)-1H-pyrazol-4-yl)pyrimidine-2,4-diamine]	
	13	CNc1nc(Nc2cn(C3CCN(CC(F)(F)F)CC3)nc2C)ncc1Br [Example 94, 5-bromo-N4-methyl-N2-(3-methyl-1-(1-(2,2,2-trifluoroethyl)piperidin-4-yl)-1H-pyrazol-4-yl)pyrimidine-2,4-diamine]	
	1.2	CNc1nc(Nc2cn(CC(F)(F)F)nc2C)ncc1Br [Example 95, 5-bromo-N4-methyl-N2-(3-methyl-1-(2,2,2-trifluoroethyl)-1H-pyrazol-4-yl)pyrimidine-2,4-diamine]	
	1.1	CNc1nc(Nc2cnn(CC(F)(F)F)c2C)ncc1Br [Example 96, 5-bromo-N4-methyl-N2-(5-methyl-1-(2,2,2-trifluoroethyl)-1H-pyrazol-4-yl)pyrimidine-2,4-diamine]	
	1.6	CCNc1nc(Nc2cn(C3COC3)nc2C)ncc1C(F)(F)F [Example 97, N4-ethyl-N2-(3-methyl-1-(oxetan-3-yl)-1H-pyrazol-4-yl)-5-(trifluoromethyl) pyrimidine-2,4-diamine]	
	3.1	CCNc1nc(Nc2cn(C3COC3)nc2C)ncc1Cl [Example 98, 5-chloro-N4-ethyl-N2-(3-methyl-1-(oxetan-3-yl)-1H-pyrazol-4-yl)pyrimidine-2,4-diamine]	
	5.4	CNc1nc(Nc2ccnn2C)ncc1Br [Example 99, 5-bromo-N4-methyl-N2-(1-methyl-1H-pyrazol-5-yl)pyrimidine-2,4-diamine]	
	8.8	CNc1nc(Nc2cn(S(C)(=O)=O)nc2C)ncc1Cl [Example 101, 5-chloro-N4-methyl-N2-(3-methyl-1-(methylsulfonyl)-1H-pyrazol-4-yl)pyrimidine-2,4-diamine]	
	2.9	CNc1nc(Nc2cn(S(C)(=O)=O)nc2C)ncc1C(F)(F)F [Example 102, N4-methyl-N2-(3-methyl-1-(methylsulfonyl)-1H-pyrazol-4-yl)-5-(trifluoromethyl) pyrimidine-2,4-diamine]	
	9	CNc1nc(Nc2c[nH]nc2C)ncc1C(F)(F)F [Example 103, N4-methyl-N2-(3-methyl-1H-pyrazol-4-yl)-5-(trifluoromethyl) pyrimidine-2,4-diamine]	
	1.4	CCNc1nc(Nc2cn(C3COC3)nc2C)ncc1Br [Example 104, 5-bromo-N4-ethyl-N2-(3-methyl-1-(oxetan-3-yl)-1H-pyrazol-4-yl)pyrimidine-2,4-diamine]	
	5.5	CNc1nc(Nc2cn(C(F)F)nc2C)ncc1C(F)(F)F [Example 105, N2-(1-(difluoromethyl)-3-methyl-1H-pyrazol-4-yl)-N4-methyl-5-(trifluoromethyl) pyrimidine-2,4-diamine]	
	1.9	CNc1nc(Nc2cnn(C(F)F)c2C)ncc1C(F)(F)F [Example 106, N2-(1-(difluoromethyl)-5-methyl-1H-pyrazol-4-yl)-N4-methyl-5-(trifluoromethyl) pyrimidine-2,4-diamine]	
	0.43	CCNc1nc(Nc2cnn(CC)c2C)ncc1Br [Example 107, 5-bromo-N4-ethyl-N2-(1-ethyl-5-methyl-1H-pyrazol-4-yl)pyrimidine-2,4-diamine]	
	0.3	CNc1nc(Nc2cn(-c3ccc(F)cc3)nc2C)ncc1Br [Example 108, 5-bromo-N2-(1-(4-fluorophenyl)-3-methyl-1H-pyrazol-4-yl)-N4-methylpyrimidine-2,4-diamine]	
	8.4	CNc1nc(Nc2cn(-c3ccccc3)nc2C)ncc1Br [Example 109, 5-bromo-N4-methyl-N2-(3-methyl-1-phenyl-1H-pyrazol-4-yl)pyrimidine-2,4-diamine]	
	12	CCCn1cc(Nc2ncc(Br)c(NC)n2)c(C)n1 [Example 113, 5-bromo-N4-methyl-N2-(3-methyl-1-propyl-1H-pyrazol-4-yl)pyrimidine-2,4-diamine]	
	19	CNc1nc(Nc2cn(CC3(C)COC3)nc2C)ncc1Cl [Example 114, 5-chloro-N4-methyl-N2-(3-methyl-1-((3-methyloxetan-3-yl)methyl)-1H-pyrazol-4-yl)pyrimidine-2,4-diamine]	
